Numbered stars: 1 amine (or outer) side, 2 acyl side, 3 side chain; on linkers, the order of the positions; unused ones are H or OH. Square brackets hold non-standard residues; d marks the D form. Peptide text beside a SMILES is read from it. * marks the point of attachment. 5FAM = O=C1OC2(c3ccc(O)cc3Oc3cc(O)ccc32)c2ccc(C(=O)*)cc21; NHCH2C6H4(4-CH2CONH2) = NC(=O)Cc1ccc(CN*)cc1; X1 = O=C(Cc1ccc(CN[*:1])cc1)[*:2]
Target: T1, K-Ras (Homo sapiens, UniProt P01116, G12V)
T1 construct: purchased Cytoskeleton Inc. CS-RS04
Experiment: MST binding affinity of resynthesized NNP hits to K-Ras
Conditions: read-out: KD (nM) [95% conf. int]; MST; NNP1 library hit; target K-Ras; one-site binding model
Protocol: Loading was performed according to the following protocol: The 200 μM stock solution of the target protein was diluted to 10 μM in 20 mM HEPES pH 8.0, 150 mM NaCl, 10 mM MgCl2, 1 mM TCEP, 0.05% Tween-20 (total volume 110 μL). 10 μL were set aside for later labeling quality control. EDTA pH 8.0 (stock concentration 10 mM) was added to the protein solution to a final concentration of 80 μM. GTP (stock concentration 50 mM) was added to the protein solution to a final concentration of 750 μM. The solution was incubated at 30° C. for 2 hours (PCR tube) and then placed on ice for 2 minutes. MgCl2 was added to the protein solution to a final concentration of 100 mM. The resulting protein solution was buffer exchanged into the buffer required in the labeling kit for labeling. […] All the other target molecules (TNFα, IL-6, IL-6R and ASGPR) were used as received without any additional treatment.
Hit binding affinity to various targets were determined using Microscale Thermophoresis (MST). MST experiments were performed on a Monolith NT.115pico (NanoTemper Technologies GmbH, Munich, Germany). Measurements were performed at room temperature, in triplicate with incubation periods of 15, 30 and 45 minutes. […] Targets were labeled using Nanotemper Monolith 2nd Generation Protein Labeling Kits. RED-MALEIMIDE (Maleimide-647-dye) labeling kit was used for K-Ras and RED-NHS (NHS-647-dye) labeling kit was used for IL-6, IL-6R, TNFα and ASGPR. The buffer for the ASGPR contained 20 mM HEPES pH 7.4, 150 mM NaCl, 10 mM MgCl2, 2 mM CaCl2, 0.05% Pluronic F-127, and 1 mM DTT; for IL-6 contained 20 mM HEPES pH 7.4, 150 mM KCl, 10 mM MgCl2, and 0.1% Pluronic F-127; for the soluble IL-6 receptor 20 mM HEPES pH 7.4, 150 mM NaCl, 10 mM MgCl2, and 0.05% Tween-20; for K-Ras 20 mM HEPES pH 7.4, 150 mM NaCl, 10 mM MgCl2, 0.05% Tween-20 and 1 mM DTT; for TNFα 10 mM HEPES pH 7.4, 150 mM NaCl, 10 mM MgCl2, 0.05% Polysorbate-20. Triplicate data was analyzed using MO.AffinityAnalysis software (NanoTemper Technologies GmbH).

Row | Compound | Kd [nM]
1 | CC(C)[C@H](NC(=O)[C@@H](Cc1c[nH]c2ccccc12)NC(=O)[C@H]1CCCN1C(=O)[C@@H](Cc1c[nH]cn1)NC(=O)[C@@H](Cc1ccc(O)cc1)NC(=O)c1ccc2c(c1)C(=O)OC21c2ccc(O)cc2Oc2cc(O)ccc21)C(=O)NCc1ccc(CC(=O)NCC(=O)N[C@H](CCCCN)C(=O)N[C@H](Cc2c[nH]cn2)C(=O)N[C@H](CC(N)=O)C(=O)N[C@@H](Cc2ccccc2)C(=O)NCc2ccc(CC(=O)N3CCC[C@@H]3C(=O)N[C@H](CO)C(=O)N[C@H](CCC(=O)O)C(=O)N[C@H](CCCNC(=N)N)C(=O)NCC(=O)NCc3ccc(CC(=O)N4CCC[C@@H]4C(=O)N[C@H](CCCCN)C(=O)N[C@H](Cc4ccc(O)cc4)C(=O)N[C@H](CCCNC(=N)N)C(=O)N[C@@H](Cc4ccccc4)C(=O)NCc4ccc(CC(=O)N5CCC[C@@H]5C(=O)NCC(=O)N[C@H](CCCNC(=N)N)C(=O)N[C@H](Cc5c[nH]c6ccccc56)C(=O)NCC(=O)NCc5ccc(CC(=O)N[C@H](Cc6ccc(O)cc6)C(=O)N6CCC[C@@H]6C(=O)N[C@H](CCCNC(=N)N)C(=O)N[C@H](CCC(=O)O)C(=O)NCC(=O)NCc6ccc(CC(N)=O)cc6)cc5)cc4)cc3)cc2)cc1 [KRAS-1-11] (5FAM-[dY][dH][dP][dW]V[X1]G[dK][dH][dN]F[X1][dP][dS][dE][dR]G[X1][dP][dK][dY][dR]F[X1][dP]G[dR][dW]G[X1][dY][dP][dR][dE]G-{NHCH2C6H4(4-CH2CONH2)}) | 60
2 | CC(C)C[C@H](NC(=O)[C@@H](CCCNC(=N)N)NC(=O)[C@@H](CCCCN)NC(=O)[C@@H](CCC(=O)O)NC(=O)[C@@H](Cc1ccccc1)NC(=O)Cc1ccc(CNC(=O)[C@H](Cc2ccccc2)NC(=O)[C@@H](CO)NC(=O)[C@@H](CCC(=O)O)NC(=O)[C@H]2CCCN2C(=O)[C@@H](CC(C)C)NC(=O)c2ccc3c(c2)C(=O)OC32c3ccc(O)cc3Oc3cc(O)ccc32)cc1)C(=O)NCc1ccc(CC(=O)N2CCC[C@@H]2C(=O)N[C@H](CO)C(=O)N[C@H](CCC(=O)O)C(=O)N[C@H](CCCNC(=N)N)C(=O)NCC(=O)NCc2ccc(CC(=O)N3CCC[C@@H]3C(=O)N[C@H](CCCCN)C(=O)N[C@H](Cc3ccc(O)cc3)C(=O)N[C@H](CCCNC(=N)N)C(=O)N[C@@H](Cc3ccccc3)C(=O)NCc3ccc(CC(=O)N4CCC[C@@H]4C(=O)NCC(=O)N[C@H](CCCNC(=N)N)C(=O)N[C@H](Cc4c[nH]c5ccccc45)C(=O)NCC(=O)NCc4ccc(CC(=O)NCC(=O)N[C@H](Cc5c[nH]c6ccccc56)C(=O)N[C@H](Cc5c[nH]cn5)C(=O)N[C@H](CCCNC(=N)N)C(=O)N[C@@H](C)C(=O)NCc5ccc(CC(N)=O)cc5)cc4)cc3)cc2)cc1 [KRAS-1-12] (5FAM-[dL][dP][dE][dS]F[X1][dF][dE][dK][dR]L[X1][dP][dS][dE][dR]G[X1][dP][dK][dY][dR]F[X1][dP]G[dR][dW]G[X1]G[dW][dH][dR]A-{NHCH2C6H4(4-CH2CONH2)}) | 24
